Literature values in patent publication US20150231081A1, “DELAYED RELEASE POSACONAZOLE TABLETS” (CADILA HEALTHCARE LIMITED, priority 2014, published 2015).
Read-outs that look alike come from different tables or passages of the source.

- solubility (environments where the pH is about pH 6.4 or more basic): less than 1 microgram/mL
- solubility (in stomach pH): approximately 0.8 mg/mL
Compound: CC[C@@H]([C@H](C)O)n1ncn(-c2ccc(N3CCN(c4ccc(OC[C@@H]5CO[C@@](Cn6cncn6)(c6ccc(F)cc6F)C5)cc4)CC3)cc2)c1=O [Posaconazole free base, 4-[4-[4-[4-[[(3R,5R)-5-(2,4-difluorophenyl)tetrahydro-5-(1H-1,2,4-triazol-1-ylmethyl)-3-furanyl]methoxy]phenyl]-1-piperazinyl]phenyl]-2-[(1S,2S)-1-ethyl-2-hydroxypropyl]-2,4-dihydro-3H-1,2,4-triazol-3-one]
